According to patent publication US10195156B2, “Compounds and compositions for intracellular delivery of agents” (ModernaTX, Inc., priority 2015, dated 2019):
Values belong to the compound of their own block, whether it stands above or below them.

Legend:
[1] = pKa of nanoparticle compositions; type: physicochemical
IP-10 = assay: Cytokine production induced by sample formulations: IP-10; type: in vivo; conditions: mice, i.v., 0.5 mpk, 6 hours, in pg/mL (unit assumed)
Text: The introduction of foreign material into a mammalian body induces an innate immune response that promotes cytokine production. Such immune responses to, for example, nanoparticle compositions including therapeutic and/or prophylactic agents, are undesirable. The induction of certain cytokines is thus measured to evaluate the […] of nanoparticle compositions. The concentrations of various cytokines in mice upon intravenous administration of nanoparticle compositions presented in Tables 1, 1a, 17-1, 19-1, 20-1 and 21-1 at a dosage of 0.5 mpk was measured at 6 hours. The standard MC3 formulation and a PBS control were also tested.

[2] = test system: modified luciferase expression; assay: Expression of Luc in different organs (liver, lung, spleen, femur) 6 hours after intravenous administration; type: in vivo; conditions: i.v., 0.5 mpk
Procedure: The efficacy of the nanoparticle compositions presented in Tables 1, 1a, 17-1, 19-1, 20-1 and 21-1 was further evaluated by measuring the expression of modified luciferase in the liver, lung, spleen, and femur upon administration of a given composition. Formulations were administered intravenously to mice (n=3) at a dosage of 0.5 mpk and bioluminescence measured after 6 hours. The standard MC3 formulation and a PBS control were also tested.

[3] = Particle size and polydispersity index of nanoparticle compositions (Zetasizer Nano ZS); type: physicochemical
Procedure: A Zetasizer Nano ZS (Malvern Instruments Ltd, Malvern, Worcestershire, UK) can be used to determine the particle size, the polydispersity index (PDI) and the zeta potential of the nanoparticle compositions in 1×PBS in determining particle size and 15 mM PBS in determining zeta potential.

[4] = Encapsulation efficiency of RNA (QUANT-IT RIBOGREEN RNA assay); type: physicochemical
Procedure: For nanoparticle compositions including an RNA, a QUANT-IT™ RIBOGREEN® RNA assay (Invitrogen Corporation Carlsbad, Calif.) can be used to evaluate the encapsulation of an RNA by the nanoparticle composition. The samples are diluted to a concentration of approximately 5 μg/mL in a TE buffer solution (10 mM Tris-HCl, 1 mM EDTA, pH 7.5). 50 μL of the diluted samples are transferred to a polystyrene 96 well plate and either 50 μL of TE buffer or 50 μL of a 2% Triton X-100 solution is added to the wells. The plate is incubated at a temperature of 37° C. for 15 minutes. The RIBOGREEN® reagent is diluted 1:100 in TE buffer, and 100 μL of this solution is added to each well. The fluorescence intensity can be measured using a fluorescence plate reader (Wallac Victor 1420 Multilablel Counter; Perkin Elmer, Waltham, Mass.) at an excitation wavelength of, for example, about 480 nm and an emission wavelength of, for example, about 520 nm. The fluorescence values of the reagent blank are subtracted from that of each of the samples and the percentage of free RNA is determined by dividing the fluorescence intensity of the intact sample (without addition of Triton X-100) by the fluorescence value of the disrupted sample (caused by the addition of Triton X-100).

[5] = test system: luciferase (Luc) mRNA expression; assay: Expression of Luc induced by sample formulations, whole-body bioluminescence after intravenous administration; type: in vivo; conditions: mice, i.v., 0.5 mg/kg; for total flux / Luc expression, rank within the named table (in words): each time point
Procedure: In order to monitor how effectively various nanoparticle compositions deliver therapeutic and/or prophylactic agents to targeted cells, different nanoparticle compositions including a particular therapeutic and/or prophylactic agent (for example, a modified or naturally occurring RNA such as an mRNA) are prepared and administered to rodent populations. Mice are intravenously, intramuscularly, intraarterially, or intratumorally administered a single dose including a nanoparticle composition with a formulation such as those provided in Table 1. In some instances, mice may be made to inhale doses. Dose sizes may range from 0.001 mg/kg to 10 mg/kg, where 10 mg/kg describes a dose including 10 mg of a therapeutic and/or prophylactic agent in a nanoparticle composition for each 1 kg of body mass of the mouse. A control composition including PBS may also be employed.
Upon administration of nanoparticle compositions to mice, dose delivery profiles, dose responses, and toxicity of particular formulations and doses thereof can be measured by enzyme-linked immunosorbent assays (ELISA), bioluminescent imaging, or other methods. For nanoparticle compositions including mRNA, time courses of protein expression can also be evaluated. Samples collected from the rodents for evaluation may include blood, sera, and tissue (for example, muscle tissue from the site of an intramuscular injection and internal tissue); sample collection may involve sacrifice of the animals.
The efficacy of the nanoparticle compositions presented in Tables 1, 1a, 17-1, 19-1, 20-1 and 21-1 was evaluated with a bioluminescence study. Formulations were administered intravenously to mice (n=6) at a dosage of 0.5 mg/kg (mpk) and bioluminescence measured at 3, 6, and 24 hour time points. The standard MC3 formulation and a PBS control were evaluated for comparison.

[6] = Table 1, * lipid:DSPC:Chol:PEG-DMG 50:10:38.5:1.5
[7] = comparison amongst compositions
[8] = Table 20-1, rows without footnote mark

SMILES: CCCCCCCCCCCCN(CCCCCCCCCCCC)CCN1CCN(C(=O)CN(CCCCCCCCCCCC)CCN(CCCCCCCCCCCC)CCCCCCCCCCCC)CC1 [Compound 2, 2-((2-(Didodecylamino)ethyl)(dodecyl)amino)-1-(4-(2-(didodecylamino)ethyl)piperazin-1-yl)ethan-1-one]
- pKa [1, 6]: 6.39
- IP-10 (IP-10; Table 4): 3365
- Total Flux Liver ([2]; Table 3, mice): 3.33E+08
- Total Flux Lung ([2]; Table 3, mice): 4.76E+05
- Total Flux Spleen ([2]; Table 3, mice, spleen): 1.14E+07
- Size (nm) ([3]; Table 1, * formulated with lipid:DSPC:Chol:PEG-DMG 50:10:38.5:1.5): 94.7 nm
- PDI [3, 6]: 0.108
- EE (%) [4, 6]: 96%
- Total Flux 3 hours ([5]; Table 2): 6.01E+09
- Total Flux 6 hours ([5]; Table 2): 3.23E+09
- Total Flux 24 hours ([5]; Table 2, 24 hours): 3.23E+09

SMILES: CCCCCCCC/C=C\CCCCCCCCN(CCO)CCCCCCCC/C=C\CCCCCCCC [Compound 17-8, 2-(Di((Z)-octadec-9-en-1-yl)amino)ethan-1-ol]
- pKa ([1]; Table 17-1): 6.16
- IP-10 (IP-10; Table 17-4): 135
- Total Flux Liver ([2]; Table 17-3, mice): 2.27E+08
- Total Flux Lung ([2]; Table 17-3, mice): 6.11E+05
- Total Flux Spleen ([2]; Table 17-3, mice, spleen): 4.25E+06
- total flux in the liver, rank within the named table (in words) ([2]; mice): somewhat comparable to those including MC3
- total flux in the spleen, rank within the named table (in words) ([2]; mice, spleen): highest
- PDI ([3]; Table 17-1): 0.20
- Size (nm) ([3]; Table 17-1): 86.4 nm
- EE (%) ([4]; Table 17-1): 96.9%
- encapsulation efficiency, rank within the named table (in words) [4, 7]: comparable to that for MC3
- Total Flux 3 hours ([5]; Table 17-2): 1.02E+09
- Total Flux 6 hours ([5]; Table 17-2): 5.94E+08
- Total Flux 24 hours ([5]; Table 17-2, 24 hours): 3.79E+07
- total flux / Luc expression, rank within the named table (in words) [5]: substantially higher flux than compositions including Compounds 17-2, 17-3, and 17-7

SMILES: CCCCC/C=C\C/C=C\CCCCCCCCC1(CCCCCCCC/C=C\C/C=C\CCCCC)CC1CN(C)C (centres unmarked) [Compound 21-1, 1-(2,2-Di((9Z,12Z)-octadeca-9,12-dien-1-yl)cyclopropyl)-N,N-dimethylmethanamine]
- pKa ([1]; Table 21-1): 6.07
- Total Flux Liver ([2]; Table 21-3, mice): 3.62E+08
- Total Flux Lung ([2]; Table 21-3, mice): 5.44E+05
- Total Flux Spleen ([2]; Table 21-3, mice, spleen): 3.27E+07
- PDI ([3]; Table 21-1): 0.237
- Size (nm) ([3]; Table 21-1): 119.9 nm
- particle size, rank within the named table (in words) [3, 7]: largest particles
- EE (%) ([4]; Table 21-1): 98.4%
- Total Flux 3 hours ([5]; Table 21-2): 3.66E+09
- Total Flux 6 hours ([5]; Table 21-2): 4.19E+09
- Total Flux 24 hours ([5]; Table 21-2, 24 hours): 4.19E+09

SMILES: CCCCC/C=C\C/C=C\CCCCCCCCC1(CCCCCCCC/C=C\C/C=C\CCCCC)CCC(OC(=O)CCCN(C)C)C1 (centres unmarked) [Compound 21-4, 3,3-Di((9Z,12Z)-octadeca-9,12-dien-1-yl)cyclopentyl 4-(dimethylamino)butanoate]
- pKa ([1]; Table 21-1): 7.01
- Total Flux Liver ([2]; Table 21-3, mice): 9.89E+07
- Total Flux Lung ([2]; Table 21-3, mice): 2.13E+05
- Total Flux Spleen ([2]; Table 21-3, mice, spleen): 1.27E+07
- total flux in organs, rank or organ comparison (in words) ([2]; mice, each organ or overall): lowest expression in each organ
- PDI ([3]; Table 21-1): 0.193
- Size (nm) ([3]; Table 21-1): 94.9 nm
- EE (%) ([4]; Table 21-1): 98.8%
- Total Flux 3 hours ([5]; Table 21-2): 1.15E+09
- Total Flux 6 hours ([5]; Table 21-2): 1.26E+09
- Total Flux 24 hours ([5]; Table 21-2, 24 hours): 1.26E+09

SMILES: CCCCC/C=C\C/C=C\CCCCCCCC1C(CCCCCCC/C=C\C/C=C\CCCCC)C1CN(C)C (centres unmarked) [Compound 21-6, 1-(2,3-Di((8Z,11Z)-heptadeca-8,11-dien-1-yl)cyclopropyl)-N,N-dimethylmethanamine]
- pKa ([1]; Table 21-1): 6.99
- Total Flux Liver ([2]; Table 21-3, mice): 4.79E+08
- Total Flux Lung ([2]; Table 21-3, mice): 2.09E+06
- Total Flux Spleen ([2]; Table 21-3, mice, spleen): 1.94E+07
- PDI ([3]; Table 21-1): 0.110
- Size (nm) ([3]; Table 21-1): 86.8 nm
- EE (%) ([4]; Table 21-1): 98.9%
- Total Flux 3 hours ([5]; Table 21-2): 2.92E+09
- Total Flux 6 hours ([5]; Table 21-2): 4.54E+09
- Total Flux 24 hours ([5]; Table 21-2, 24 hours): 1.40E+08

Second part, led by results:

- pKa [1, 8]: 6.62
- IP-10 (IP-10; Table 20-4, formula (20-I)): 395.7
- PDI [3, 8]: 0.225
- Size (nm) [3, 8]: 73.5 nm
- EE (%) [4, 8]: 97.2%
SMILES: CCCCCCCCCN(CCO)CCN(CCCCCCCCC)CCCCCCCCC [Compound 20-16, 2-((2-(Dinonylamino)ethyl)(nonyl)amino)ethan-1-ol]
- Total Flux Liver ([2]; Table 20-3, mice): 9.55E+04
- Total Flux Lung ([2]; Table 20-3, mice): 1.44E+04
- Total Flux Spleen ([2]; Table 20-3, mice, spleen): 6.57E+04
- total flux in the liver, rank within the named table (in words) ([2]; mice): lowest
- Total Flux 3 hours ([5]; Table 20-2): 7.88E+05
- Total Flux 6 hours ([5]; Table 20-2): 6.25E+05
- Total Flux 24 hours ([5]; Table 20-2, 24 hours): 2.16E+05
- total flux after 24 hours, rank within the named table (in words) ([5]; 24 hours): lowest

- pKa ([1]; Table 19-1): 6.32
- PDI ([3]; Table 19-1): 0.204
- Size (nm) ([3]; Table 19-1): 106.9 nm
- EE (%) ([4]; Table 19-1): 93.6%
SMILES: CCCCCCCCCCCCN(CCCCCCCCCCCC)CCN1CCN(Cc2ccc(OC)cc2)CC1 [Compound 19-5, N-Dodecyl-N-(2-(4-(4-methoxybenzyl)piperazin-1-yl)ethyl)dodecan-1-amine]
- Total Flux Liver ([2]; Table 19-3, mice): 5.99E+06
- Total Flux Lung ([2]; Table 19-3, mice): 3.46E+04
- Total Flux Spleen ([2]; Table 19-3, mice, spleen): 2.10E+05
- Total Flux 3 hours ([5]; Table 19-2): 2.37E+07
- Total Flux 6 hours ([5]; Table 19-2): 1.44E+07
- Total Flux 24 hours ([5]; Table 19-2, 24 hours): 2.76E+06
- total flux / Luc expression, rank within the named table (in words) [5]: next highest flux

- pKa ([1]; Table 17-1): 6.76
- PDI ([3]; Table 17-1): 0.24
- Size (nm) ([3]; Table 17-1): 87.3 nm
- EE (%) ([4]; Table 17-1): 88.7%
SMILES: CCCCCCCCCCCCN(CCO)CCCCCCCCCCCC [Compound 17-11, 2-(Didodecylamino)ethan-1-ol]
- Total Flux Liver ([2]; Table 17-3, mice): 5.06E+05
- Total Flux Lung ([2]; Table 17-3, mice): 1.20E+04
- Total Flux Spleen ([2]; Table 17-3, mice, spleen): 3.37E+05
- Total Flux 3 hours ([5]; Table 17-2): 1.86E+06
- Total Flux 6 hours ([5]; Table 17-2): 2.82E+06
- Total Flux 24 hours ([5]; Table 17-2, 24 hours): 2.70E+05
